From patent US20240254119A1 (THIRD HARMONIC BIO, INC., priority 2022, published 2024)
Where two headings read alike, the source gives them in different places.

Legend:
[1] = biological target: T1, MDR1 (MDR1-MDCKII cells) (Homo sapiens, UniProt P08183); assay: Permeability in MDR1-MDCKII cells; type: in vitro ADME; details: for MDCKII-MDR1: Papp A-B: MDCKII-MDR1, apical to basolateral
T1 construct: host or cells: MDCKII (canine kidney) cells
Protocol: Exemplary compounds were tested for cell permeability in Caco-2, MDCKII-MDR1 and MDCKII-BCRP cell lines with efflux transporter engagement inferred from the efflux ratios determined. Procedures and results are described below. […] This feature of certain compounds is in part due to efflux transporter engagement. See, for instance, exemplary such compounds included in data tables below.
MDR1-MDCKII cells (obtained from Piet Borst at the Netherlands Cancer Institute) were seeded onto […] membranes (PET) in 96-well insert systems at 2.5×10^5 cells/mL until to 4-7 days for confluent cell monolayer formation.
Test compounds were diluted with the transport buffer (HBSS with 10 mM Hepes, pH7.4) from DMSO stock solution to a concentration of 2.00 μM (DMSO<1%) and applied to the apical or basolateral side of the cell monolayer. Permeation of the test compounds from A to B direction or B to A direction was determined in duplicate. Digoxin was tested at 10.0 μM from A to B direction or B to A direction as well, while nadolol and metoprolol were tested at […] in A to B direction in duplicate. The plate was incubated for 2.5 hours in CO2 incubator at 37±1° C., with 5% CO2 at saturated humidity without shaking. In addition, the efflux ratio of each compound was also determined. Test and reference compounds were quantified by LC-MS/MS analysis based on the peak area ratio of analyte/IS.
After transport assay, Lucifer yellow rejection assay are applied to determine the cell monolayer integrity. Buffers are removed from both apical and basolateral chambers, followed by the addition of 75 μL of 100 μM lucifer yellow in transport buffer and 250 μL transport buffer in apical and basolateral chambers, respectively. The plate is incubated for 30 minutes at 37° C. with 5% CO2 and saturated humidity without shaking. After 30 minutes incubation, 20 μL of lucifer yellow samples are taken from the apical sides, followed by the addition of 60 μL of Transport Buffer. And then 80 μL of lucifer yellow samples are taken from the basolateral sides. The relative fluorescence unit (RFU) of lucifer yellow is measured at 425/528 nm (excitation/emission) with an Envision plate reader.
The apparent permeability coefficient Papp (cm/s) was calculated using the equation: […]
Where dCr/dt is the cumulative concentration of compound in the receiver chamber as a function of time (μM/s); Vr is the solution volume in the receiver chamber (0.075 mL on the apical side, 0.25 mL on the basolateral side); A is the surface area for the transport, i.e. 0.0804 cm^2 for the area of the monolayer; C0 is the initial concentration in the donor chamber (μM). The efflux ratio was calculated using the equation: […]
Where Vd is the volume in the donor chambers (0.075 mL on the apical side, 0.25 mL on the basolateral side); Cd and Cr are the final concentrations of transport compound in donor and receiver chambers, respectively.

[2] = Three time point assay for plasma, brain and testes distribution after oral dosing; type: in vivo, rat; details: for Brain concentration / Kp testes/plasma / Plasma concentration / Testes concentration / Kp brain/plasma / concentration at 0.5 h / Kp at 0.5 h / concentration at 2 h / Kp at 2 h / concentration at 7 h / Kp at 7 h: rat, oral dosing; for concentration at 0.5 h / Kp at 0.5 h / concentration at 2 h / Kp at 2 h / concentration at 7 h / Kp at 7 h: male, SD, 10 mg/kg; for concentration at 0.5 h / Kp at 0.5 h: time point 0.5 h; for concentration at 7 h / Kp at 7 h: time point 7 h
Protocol: Exemplary compounds were tested for distribution in plasma, brain and testes tissue following oral dosing of the compounds in rats. Procedures and results are described below.
Male SD Rats were group-housed (up to four animals/sex/cage) in polysulfone cages with certified aspen wood bedding during acclimation and study period.
Certified rodent diet and water was provided to all animals ad libitum, unless fasting for study procedures.
Appropriate amount of test article was accurately weighed and mixed with an appropriate volume of vehicle to get a clear solution or a uniform suspension; vortexing or sonication in water bath may also be need. Animals were dosed within four hours after the formulation is prepared.
For PO dosing, the dose formulation was administered via oral gavage following facility SOPs. The dose volume was determined by the animals' body weight collected on the morning of dosing day. The dose was 10 mg/kg.
Each blood collection (about 1 mL per time point at one or more of 0.5 h, 2 h, 3 h, 5.3 h, and 7 h) was performed from jugular vein or other suitable site of each animal into pre-chilled commercial EDTA-K2 tubes and placed on wet ice until centrifugation.
Blood samples were processed for plasma by centrifugation at approximately 4° C., 3,200 g for 10 min. Plasma was collected respectively and transferred into pre-labeled 96 well plate or polypropylene tubes, quick frozen over dry ice and kept at −60° C. or lower until LC-MS/MS analysis.
Rat brain was perfused with PBS to remove blood before harvest.
After perfusion, brain and testis were homogenized using homogenizing buffer (15 mM PBS (pH7.4):MeOH=2:1) at the ratio of 1:9 (1 g tissue with 9 mL buffer, the dilution ratio is 10). The brain homogenate was kept at −60° C. or lower until LC-MS/MS analysis. General sample processing procedure (brain homogenate & testis homogenate) using 96-well plate: • 1). An aliquot of 40 μL unknown sample, calibration standard, quality control and dilution quality control (if have), single blank, and double blank sample was added to the 96-well plate respectively; • 2). Each sample (except the double blank) was quenched with 400 μL of IS1 respectively (double blank sample was quenched with 400 μL of I), and then the mixture was vortex-mixed for 10 min at 800 rpm and centrifuged for 15 min at 3220×g, 4° C.; • 3). An aliquot of 50 μL supernatant was transferred to another clean 96-well plate and centrifuged for 5 min at 3220×g, 4° C., then the supernatant was directly injected for LC-MS/MS analysis.
• 1. A LC-MS/MS method for the quantitative determination of test compound in biological matrix was developed under Non-GLP compliance. • 2. A calibration curve with at least 6 non-zero calibration standards was applied for the method including LLOQ. • 3. A set of QCs consisting of low, middle, and high concentrations were applied for the method. • 4. N in 1 cassette LC-MS/MS method was developed for samples coming from different studies and the interference among all cassette analytes was evaluated during the method development. • 5. Cassette administration assay was performed if the mass difference (Δmass) among different analytes was more than 4 Da. In this case, interference evaluation was not necessary.
• 1. If sample number within a batch was ≤12, at least one set of standard curve separated with two parts through begin and end of the sequence, was included in the run, and QCs were not required. The recommended injection order was C8, C6, C4, C2, study samples, C7, C5, C3, C1. • 2. If sample number within a batch was >12, one standard curve and two sets of QCs with low, middle and high concentrations were applied for bioanalysis. Meanwhile, QCs number should be more than 5% of study sample number. • 3. Samples with the same types of matrix in different studies were quantified in one analysis run by using the developed N in 1 cassette LC-MS/MS method. • 4. […]

[3] = brain, read-out: Brain concentration
[4] = brain, read-out: Kp brain/plasma
[5] = plasma, read-out: Plasma concentration
[6] = testes, read-out: Kp testes/plasma
[7] = testes, read-out: Testes concentration

T1 sequence (P08183 whole entry): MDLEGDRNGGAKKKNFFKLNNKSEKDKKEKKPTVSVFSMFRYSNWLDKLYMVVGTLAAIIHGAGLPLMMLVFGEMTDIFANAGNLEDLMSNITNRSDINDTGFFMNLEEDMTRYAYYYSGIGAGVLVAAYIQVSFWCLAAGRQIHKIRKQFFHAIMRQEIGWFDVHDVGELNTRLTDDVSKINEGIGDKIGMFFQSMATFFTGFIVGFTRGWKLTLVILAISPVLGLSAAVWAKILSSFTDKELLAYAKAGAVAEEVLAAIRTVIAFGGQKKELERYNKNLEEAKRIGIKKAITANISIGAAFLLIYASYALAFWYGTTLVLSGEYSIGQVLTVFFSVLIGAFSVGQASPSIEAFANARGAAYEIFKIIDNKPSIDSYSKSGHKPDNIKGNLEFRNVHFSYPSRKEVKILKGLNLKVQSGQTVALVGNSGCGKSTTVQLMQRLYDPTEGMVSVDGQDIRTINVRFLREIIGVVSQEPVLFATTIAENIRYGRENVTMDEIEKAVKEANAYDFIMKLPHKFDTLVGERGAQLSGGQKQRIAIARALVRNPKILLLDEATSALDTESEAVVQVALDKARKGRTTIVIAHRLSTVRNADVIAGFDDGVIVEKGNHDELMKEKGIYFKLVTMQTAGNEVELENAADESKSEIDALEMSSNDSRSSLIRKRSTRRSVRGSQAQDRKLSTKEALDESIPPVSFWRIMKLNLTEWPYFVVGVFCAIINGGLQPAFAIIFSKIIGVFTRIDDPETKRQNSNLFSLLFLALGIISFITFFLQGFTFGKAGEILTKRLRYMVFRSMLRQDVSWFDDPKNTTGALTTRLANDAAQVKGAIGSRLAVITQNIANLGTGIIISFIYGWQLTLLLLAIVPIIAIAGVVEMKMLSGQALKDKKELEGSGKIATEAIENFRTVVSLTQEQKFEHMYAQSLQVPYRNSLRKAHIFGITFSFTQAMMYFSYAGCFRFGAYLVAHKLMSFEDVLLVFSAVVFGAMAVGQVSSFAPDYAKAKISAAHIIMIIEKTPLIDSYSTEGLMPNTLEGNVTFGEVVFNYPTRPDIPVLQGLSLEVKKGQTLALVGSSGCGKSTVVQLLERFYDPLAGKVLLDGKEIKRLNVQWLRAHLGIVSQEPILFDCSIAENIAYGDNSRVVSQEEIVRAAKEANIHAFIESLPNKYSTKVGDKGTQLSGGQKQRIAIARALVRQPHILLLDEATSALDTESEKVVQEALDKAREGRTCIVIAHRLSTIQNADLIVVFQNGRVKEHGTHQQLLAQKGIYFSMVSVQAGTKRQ

SMILES	MDCKII-MDR1: Efflux Ratio [1]	MDCKII-MDR1: Papp A-B [1]	Brain concentration ([2]; time point 2 h) [ng/g]	Kp testes/plasma ([2]; time point 2 h)	Plasma concentration ([2]; time point 2 h) [ng/mL]	Testes concentration ([2]; time point 2 h) [ng/g]	further results
Cc1ccc(-c2noc(CCO)n2)cc1NC(=O)c1cnc2ccccn12 [Compound I-306]	2.88	14.5 10^−6 cm/s	–	–	–	–	–
CCCNc1ccn2c(C(=O)Nc3cc(-c4noc([C@H]5C[C@@H]5F)n4)ccc3C)cnc2c1 [Compound I-304]	1.08	3.65 10^−6 cm/s	–	–	–	–	–
Cc1ccc(-c2noc(C3CCS(=O)(=O)N3)n2)cc1NC(=O)c1cnc2ccccn12 (racemic) [Compound I-330]	–	–	0	0.86	117	100	–
Cc1ccc(-c2noc(CC(C)(C)O)n2)cc1NC(=O)c1cnc2ccccn12 [Compound I-336]	1.85	15.4 10^−6 cm/s	–	–	–	–	–
Cc1ccc(-c2noc(C3CC(F)C3)n2)cc1NC(=O)c1cnc2ccccn12 (centres unmarked) [Compound I-381]	0.55	5.95 10^−6 cm/s	–	–	–	–	–
Cc1ccc(-c2noc(C(C)O)n2)cc1NC(=O)c1cnc2ccccn12 (racemic) [Compound I-364]	2.02	16 10^−6 cm/s	–	–	–	–	–
Cc1ccc(-c2noc(CC(=O)O)n2)cc1NC(=O)c1cnc2ccccn12 [Compound I-335]	–	–	0	–	16.7	0	–
Cc1ccc(-c2noc(C3CCN3)n2)cc1NC(=O)c1cnc2ccccn12 (racemic) [Compound I-394]	3.08	6.21 10^−6 cm/s	–	–	–	–	–
Cc1ccc(-c2noc(C3CN(C(=O)CO)C3)n2)cc1NC(=O)c1cnc2ccccn12 [Compound I-287]	27.9	0.83 10^−6 cm/s	–	–	–	–	–
Cc1nc(-c2ccc(C)c(NC(=O)c3cnc4ccccn34)c2)no1 [Compound I-360]	–	–	3420	0.81	3650	2960	Kp brain/plasma ([2]; time point 2 h): 0.94
Cc1ccc(-c2noc([C@H]3C[C@@H]3F)n2)cc1NC(=O)c1cnc2cc(N3CCC3)ccn12 [Compound I-295]	–	–	377	0.49	2080	1020	Kp brain/plasma ([2]; time point 2 h): 0.18
O=C(Nc1cc(-c2noc([C@H]3C[C@@H]3F)n2)ccc1Br)c1cnc2ccccn12 [Compound I-340]	–	–	3660	1.35	2230	3010	Kp brain/plasma ([2]; time point 2 h): 1.64
O=C(Nc1cc(-c2noc([C@H]3C[C@@H]3F)n2)ccc1Cl)c1cnc2ccccn12 [Compound I-341]	0.82	17.7 10^−6 cm/s	–	–	–	–	–
Cc1ccc(-c2noc([C@H]3C[C@@H]3F)n2)cc1NC(=O)c1cnc2cc(COCC(C)(C)O)ccn12 [Compound I-71, N-[5-[5-[(1R,2S)-2-fluorocyclopropyl]-1,2,4-oxadiazol-3-yl]-2-methyl-phenyl]-7-[(2-hydroxy-2-methyl-propoxy)methyl]imidazo[1,2-a]pyridine-3-carboxamide]	–	–	–	–	–	–	concentration at 0.5 h [2, 3]: 91.8 ng/g; Kp at 0.5 h [2, 4]: 0.05; concentration at 2 h ([2]; brain, time point 2 h, read-out: Brain concentration): 169 ng/g; Kp at 2 h ([2]; brain, time point 2 h, read-out: Kp brain/plasma): 0.05; concentration at 7 h [2, 3]: 126 ng/g; Kp at 7 h [2, 4]: 0.03; concentration at 0.5 h [2, 5]: 1810 ng/mL; concentration at 2 h ([2]; plasma, time point 2 h, read-out: Plasma concentration): 3420 ng/mL; concentration at 7 h [2, 5]: 4110 ng/mL; Kp at 0.5 h [2, 6]: 0.09; concentration at 0.5 h [2, 7]: 166 ng/g; Kp at 2 h ([2]; testes, time point 2 h, read-out: Kp testes/plasma): 0.19; concentration at 2 h ([2]; testes, time point 2 h, read-out: Testes concentration): 653 ng/g; Kp at 7 h [2, 6]: 0.18; concentration at 7 h [2, 7]: 739 ng/g; brain penetration as indicated by Kp (Cbrain/Cplasma) ([2]; result in words): do not significantly penetrate the brain or minimally penetrate the brain
Cc1cc(C)cc(Nc2ccc3ncc(C(=O)Nc4cc(-c5noc([C@H]6C[C@@H]6F)n5)ccc4C)n3c2)c1 [Compound I-299]	–	–	101	0.92	216	198	Kp brain/plasma ([2]; time point 2 h): 0.47
COc1ccn2c(C(=O)Nc3cc(-c4noc(CC(O)C(F)F)n4)ccc3C)cnc2c1 (single isomer, unassigned) [Compound I-76]	–	–	–	–	–	–	Brain concentration ([2]; time point 3 h): 55.9 ng/g; Kp brain/plasma ([2]; time point 3 h): 0.09; Kp testes/plasma ([2]; time point 3 h): 0.41; Plasma concentration ([2]; time point 3 h): 598 ng/mL; Testes concentration ([2]; time point 3 h): 246 ng/g
Cc1ccc(-c2noc(C(C)NS(C)(=O)=O)n2)cc1NC(=O)c1cnc2ccccn12 (single isomer, unassigned) [Compound I-238]	–	–	0	0.17	791	131	–
